Measurements reported in patent US6458767B1, “Use of peptides inhibitory for thrombospondin dependent TGF-β activation in the treatment of kidney disease” (The UAB Research Foundation, priority 1994, dated 2002).
Ends that are not written are not given here.

Assays:
TGF-β = assay: Glomerular secretion of active TGF-β (NRK-bioassay of supernatants of isolated glomeruli) in anti-Thy1 rats; format: in vivo, rat
From the text: (§1) Experimental design. Experimental mesangial proliferative glomerulonephritis was induced using the monoclonal mouse anti-Thy1 antibody OX-7. Peptides were continuously infused intravenously (i.v.) via jugular vein using osmotic minipumps starting sixteen hours after disease induction. The effects of the hexapeptide AAWSHW (SEQ ID NO:22) (that interferes with the TSP1-mature TGF-β interaction) or the LSKL-peptide (SEQ ID NO:21) (that blocks the TSP1-LAP interaction) were compared to a control peptide (SLLK) in the anti-Thy1 model. Tissues from different time points (days three, five, eight) of this experiment were analyzed in regard to mesangiolysis, macrophage-influx, MC-proliferation, MC-activation, microaneurysm and matrix formation, GEN proliferation, TSP1, TGF-β1 and 2, as well as TGF-βRI and RII. Functional parameters such as blood pressure, proteinuria, and creatinine clearance were also determined. On day eight, glomerular secretion of active TGF-β was determined in individual animals by incubating isolated glomeruli for twenty-four hours in DMEM and measuring TGF-β activity in glomerular supernatants using the NRK-bioassay.
(§2) Animal model Experimental mesangial proliferative glomerulonephritis (anti-Thy1 model) was induced in Sprague Dawley rats (180-200 g; Charles River, Sulzfeld, Germany) by a single injection of 1 mg/kg of the mouse monoclonal anti-Thy1 antibody OX-7 (European Collection of Animal Cell Culture, Salisbury, England). In this animal model, complete anti-Thy1 antibody binding occurs within an hour (Johnson et al. (1991) Am. J. Pathol. 138 (2), 313-21). To avoid potential interference of the LAP-peptides with anti-Thy1 antibody binding and subsequent mesangiolysis, the peptide treatment was started sixteen hours after disease induction, when binding of the anti-Thy1 antibody to the mesangium and subsequent mesangiolysis had already occurred. The peptides used in this study were synthesized, purified, and analyzed as described elsewhere (Crawford et al. (1998) Cell 93, 1159-1170).
Renal biopsies as described previously (Hugo et al. (1997) J. Clin. Invest. 100, 786-794) were performed on days three and five, and the experiment was finished on day eight. To determine DNA incorporation into proliferating cells, each animal was injected intravenously with BrdU (50 mg/kg bw) ninety minutes before the second survival biopsy was taken on day five (peak of MC proliferation). Renal biopsies were fixed in methyl Carnoy's, 10% formalin and/or OCT and snap frozen. A twenty-four hour urine collection for measurement of protein and creatinine was done from day seven to eight, when maximal proteinuria occurs in this model (unpublished observation). Blood pressure measurements were done twice before and twice after disease induction. In renal biopsies, the frequency of glomerular microaneurysms, the number of infiltrating macrophages, the number of proliferating MC, the expression of the contractile protein α-sm actin as a marker of MC-activation, and the expression of TGF-β1, TGF-β2, TGF-βRI, TGF-βRII, TSP1, as well as of extracellular matrix proteins such as collagen I, collagen IV and fibronectin were determined. For TGF-β activity measurements in individual animals on day eight, glomeruli were isolated by differential sieving (Johnson et al. (1991) Am. J. Pathol. 138 (2), 313-21) and counted using five aliquots. Glomerular isolates were discarded if purity was less than 95%. 8000 glomeruli/ml were incubated in DMEM at 37° C. […]

[1] = test system: rats with anti-Thy1 disease; assay: Glomerular extracellular matrix formation (Masson's Trichrome, collagen I, collagen IV, fibronectin stains) in the anti-Thy1 model; format: in vivo, rat
From the text: as §1, §2
(§3) Renal biopsies as described previously (Hugo et al. (1997) J. Clin. Invest. 100, 786-794) were performed on days three and five, and the experiment was finished on day eight. To determine DNA incorporation into proliferating cells, each animal was injected intravenously with BrdU (50 mg/kg bw) ninety minutes before the second survival biopsy was taken on day five (peak of MC proliferation). Renal biopsies were fixed in methyl Carnoy's, 10% formalin and/or OCT and snap frozen. A twenty-four hour urine collection for measurement of protein and creatinine was done from day seven to eight, when maximal proteinuria occurs in this model (unpublished observation). Blood pressure measurements were done twice before and twice after disease induction. In renal biopsies, the frequency of glomerular microaneurysms, the number of infiltrating macrophages, the number of proliferating MC, the expression of the contractile protein α-sm actin as a marker of MC-activation, and the expression of TGF-β1, TGF-β2, TGF-βRI, TGF-βRII, TSP1, as well as of extracellular matrix proteins such as collagen I, collagen IV and fibronectin were determined. For TGF-β activity measurements in individual animals on day eight, glomeruli were isolated by differential sieving (Johnson et al. (1991) Am. J. Pathol. 138 (2), 313-21) and counted using five aliquots. Glomerular isolates were discarded if purity was less than 95%. 8000 glomeruli/ml were incubated in DMEM at 37° C. After a twenty-four hour incubation period, glomerular supernatants were stored by −70° C. until TGF-β activity measurements were done.
(§4) Peptide infusion. All peptides (at a concentration of 3.5 mg/ml) were continuously infused for seven days via a catheter in the right jugular vein using osmotic minipumps (Alzet Corp./Charles River, Sulzfeld, Germany). […]

[2] = test system: activation of TGF-β by TSP1; details: background, literature; cited from earlier work
[3] = test system: rats with anti-Thy1 disease; assay: Functional parameters (proteinuria, creatinine clearance, blood urea nitrogen, systolic blood pressure) in the anti-Thy1 model; format: in vivo, rat
From the text: as §1, §2, §3, §4

[4] = test system: rats with anti-Thy1 disease; assay: Glomerular immunostaining score for TGF-β1, TGF-β2, TGF-βRI, TGF-βRII and TSP1 in the anti-Thy1 model; format: in vivo, rat
From the text: as §1, §2, §3, §4

[5] = test system: rats with anti-Thy1 disease; assay: Glomerular MC-proliferation, MC-activation and macrophage influx in the anti-Thy1 model; format: in vivo, rat
From the text: as §1, §2, §3, §4

[6] = test system: rats with anti-Thy1 disease; assay: Mesangiolysis, microaneurysm formation and GEN-proliferation in the anti-Thy1 model; format: in vivo, rat
From the text: as §1, §2, §3, §4

AAWSHW
Active TGF-β (colonies > 62 um) (TGF-β; day 8 glomeruli, 24 h supernatant, NRK-bioassay, continuous i.v. peptide infusion): 220 ± 70 colonies > 62 um | glomerular secretion of active TGF-β compared to control peptide (SLLK) treated rats (TGF-β; day eight glomeruli, p<0.01): markedly reduced | Matrix Collagen 1 (score 0-4) ([1]; day 3): 0.1 ± 0.1 score 0-4 | Matrix Collagen IV (score 0-4) ([1]; day 3): 1.0 ± 0.5 score 0-4 | Matrix Fibronectin (score 0-4) ([1]; day 3): 1.3 ± 0.3 score 0-4 | Matrix Trichrome (score 0-3) ([1]; day 3): 0.5 ± 0.3 score 0-3 | Matrix Collagen 1 (score 0-4) ([1]; day 5): 0.8 ± 0.6 score 0-4 | Matrix Collagen IV (score 0-4) ([1]; day 5): 2.1 ± 0.6 score 0-4 | Matrix Fibronectin (score 0-4) ([1]; day 5): 1.9 ± 1.2 score 0-4 | Matrix Trichrome (score 0-3) ([1]; day 5): 0.9 ± 0.3 score 0-3 | Matrix Collagen 1 (score 0-4) ([1]; day 8): 1.0 ± 0.6 score 0-4 | Matrix Collagen IV (score 0-4) ([1]; day 8): 1.3 ± 0.5 score 0-4 | Matrix Fibronectin (score 0-4) ([1]; day 8): 1.2 ± 0.8 score 0-4 | Matrix Trichrome (score 0-3) ([1]; day 8): 1.4 ± 0.4 score 0-3 | extracellular matrix formation as determined by Trichrome staining ([1]; day eight, in words): markedly suppressed | glomerular accumulation of collagen I, collagen IV and fibronectin by immunohistochemistry ([1]; time course of anti-Thy1 disease, in words): reduced glomerular accumulation of all three extracellular matrix proteins | block of activation of TGF-β by TSP1 [2]: able to block activation of TGF-β by TSP1 | Proteinuria (mg/24 hours) ([3]; day 8 (urine collection day seven to eight)): 51 ± 50 mg/24 hours | twenty-four hour proteinuria ([3]; days seven to eight): 51±50 mg/twenty-four hours | Blood urea nitrogen ([3]; rat, in vivo): 23.6 ± 7.1 mg/dL | TGF-β1 (score 0-4) ([4]; day 3): 0.4 ± 0.2 score 0-4 | TGF-β2 (score 0-4) ([4]; day 3): 0.4 ± 0.3 score 0-4 | TGF-βRI (score 0-4) ([4]; day 3): 0.5 ± 0.3 score 0-4 | TGF-βRII (score 0-4) ([4]; day 3): 0.5 ± 0.5 score 0-4 | TSP I (score 0-4) ([4]; day 3): 0.6 ± 0.2 score 0-4 | TGF-β1 (score 0-4) ([4]; day 5): 1.9 ± 0.9 score 0-4 | TGF-β2 (score 0-4) ([4]; day 5): 1.1 ± 0.7 score 0-4 | TGF-βRI (score 0-4) ([4]; day 5): 1.9 ± 0.4 score 0-4 | TGF-βRII (score 0-4) ([4]; day 5): 1.4 ± 0.6 score 0-4 | TSP I (score 0-4) ([4]; day 5): 1.5 ± 0.9 score 0-4 | TGF-β1 (score 0-4) ([4]; day 8): 1.6 ± 1.1 score 0-4 | TGF-β2 (score 0-4) ([4]; day 8): 0.5 ± 0.4 score 0-4 | TGF-βRI (score 0-4) ([4]; day 8): 1.6 ± 0.6 score 0-4 | TGF-βRII (score 0-4) ([4]; day 8): 1.2 ± 0.5 score 0-4 | TSP I (score 0-4) ([4]; day 8): 0.8 ± 0.7 score 0-4 | MC-activation α-sm actin (score 0-4) ([5]; day 3): 1.1 ± 0.5 score 0-4 | MC-proliferation (OX-7 + /PCNA + cells/glomerulus) ([5]; day 3): 3.1 ± 0.8 cells/glomerulus | Macrophages (ED-1 + cells/glomerulus) ([5]; day 3): 3.0 ± 1.8 cells/glomerulus | MC-activation α-sm actin (score 0-4) ([5]; day 5): 2.8 ± 0.5 score 0-4 | MC-proliferation (OX-7 + /BrdU + cells/glomerulus) ([5]; day 5): 4.6 ± 1.9 cells/glomerulus | MC-proliferation (OX-7 + /PCNA + cells/glomerulus) ([5]; day 5): 8.5 ± 1.6 cells/glomerulus | Macrophages (ED-1 + cells/glomerulus) ([5]; day 5): 0.9 ± 0.5 cells/glomerulus | MC-activation α-sm actin (score 0-4) ([5]; day 8): 2.5 ± 0.4 score 0-4 | MC-proliferation (OX-7 + /PCNA + cells/glomerulus) ([5]; day 8): 3.9 ± 0.8 cells/glomerulus | Macrophages (ED-1 + cells/glomerulus) ([5]; day 8): 0.7 ± 0.3 cells/glomerulus | MC activation (de novo expression of α-sm-actin) ([5]; in words): did not significantly alter | Glomerular Microaneurysm (in percent) ([6]; day 3): 12.2 ± 11.6% | Glomerular Microaneurysm (in percent) ([6]; day 5): 15.5 ± 11.8% | Glomerular Microaneurysm (in percent) ([6]; day 8): 1.6 ± 1.8% | Glomerular GEN-proliferation (double staining for RECA-1 and PCNA) ([6]; day three): 1.8±0.6 | mesangiolysis scores ([6]; day three, scale 0-IV): 2.5±0.4
